According to the supplement of paper PMC10307832:

Key:
Experiment in all cases: relative viability (nuclei count vs DMSO), 5 days (fraction); higher = more cells survive
Dactolisib = compound: Cn1c(=O)n(-c2ccc(C(C)(C)C#N)cc2)c2c3cc(-c4cnc5ccccc5c4)ccc3ncc21 [Dactolisib]
Procedure, shortened: (§1)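 In 1536-well plates, lung cancer cell lines rested overnight at 37 °C before five library-drug doses (not always all listed), √10 apart, were pinned onto vehicle-anchored plates. Nuclei were counted with MetaXpress from 4× Hoechst images taken after 5 days without medium change. Viability compares treated-well with vehicle-well nuclei as a median over plates, and plates needed control CV below 25% plus at least one doubling to pass.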

AZ505 = compound: C1CCC(CC1)N(CCNCCC2=C3C(=C(C=C2)O)NC(=O)CO3)C(=O)CCNCCC4=CC(=C(C=C4)Cl)Cl [AZ505]
Procedure, shortened: as §1

Dactolisib + Pictilisib = compound: Cn1c(=O)n(-c2ccc(C(C)(C)C#N)cc2)c2c3cc(-c4cnc5ccccc5c4)ccc3ncc21 [Dactolisib] + CS(=O)(=O)N1CCN(Cc2cc3nc(-c4cccc5[nH]ncc45)nc(N4CCOCC4)c3s2)CC1 [Pictilisib] (partner 1 µM)
Procedure, shortened: (§2)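 After 5 days of treatment, lung cancer cells in 1536-well plates were fixed and stained in a single step (final 0.05% Triton X-100, 1% formaldehyde, 1 ug/ml Hoechst) and their nuclei counted on 4× images. Treatment had been applied by pin tool the day after seeding as one drug alone or as a fixed anchor-drug dose with five library-drug doses (not always all listed) in √10 steps. Relative viability is the nuclei count of treated wells divided by that of vehicle wells, and values are medians of duplicate plates.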

Dactolisib + Foretinib = compound: Cn1c(=O)n(-c2ccc(C(C)(C)C#N)cc2)c2c3cc(-c4cnc5ccccc5c4)ccc3ncc21 [Dactolisib] + COc1cc2c(Oc3ccc(NC(=O)C4(C(=O)Nc5ccc(F)cc5)CC4)cc3F)ccnc2cc1OCCCN1CCOCC1 [Foretinib] (partner 0.25 µM)
Procedure, shortened: as §2

Cell Line: UMC-11
- relative viability (Dactolisib; 0.002 µM): 0.96
- relative viability (Dactolisib; 0.006325 µM): 0.836
- relative viability (Dactolisib; 0.02 µM): 0.77
- relative viability (Dactolisib; 0.06325 µM): 0.398
- relative viability (Dactolisib; 0.2 µM): 0.273
- relative viability (AZ505; 0.08 µM): 0.887
- relative viability (AZ505; 0.253 µM): 0.994
- relative viability (AZ505; 0.8 µM): 0.94
- relative viability (AZ505; 2.53 µM): 1.07
- relative viability (AZ505; 8 µM): 1.03
- relative viability (Dactolisib + Pictilisib; first compound 0.002 µM): 0.753
- relative viability (Dactolisib + Pictilisib; first compound 0.006325 µM): 0.727
- relative viability (Dactolisib + Pictilisib; first compound 0.02 µM): 0.606
- relative viability (Dactolisib + Pictilisib; first compound 0.06325 µM): 0.285
- relative viability (Dactolisib + Pictilisib; first compound 0.2 µM): 0.203
- relative viability (Dactolisib + Foretinib; first compound 0.002 µM): 1.04
- relative viability (Dactolisib + Foretinib; first compound 0.006325 µM): 0.882
- relative viability (Dactolisib + Foretinib; first compound 0.02 µM): 0.671
- relative viability (Dactolisib + Foretinib; first compound 0.06325 µM): 0.273
- relative viability (Dactolisib + Foretinib; first compound 0.2 µM): 0.242
